Measurements: patent publication US8288428B2, “Compounds as cannabinoid receptor ligands” (Abbott Laboratories, priority 2009, dated 2012)
Where two headings read alike, the source gives them in different places.

Legend:
[1] = target: T1, human CB2 receptors (Homo sapiens, UniProt P34972); experiment: human CB2 radioligand binding assay
T1 construct: expressed in transfected cells; membrane preparation
Protocol: (§1) (i) In Vitro Methods—CB2 and CB1 Radioligand Binding Assays:
(§2) The CB1 and CB2 radioligand binding assays described herein are utilized to ascertain the selectivity of compounds of the present application for binding to CB2 relative to CB1 receptors.
(§3) HEK293 cells stably expressing human CB2 receptors were grown until a confluent monolayer was formed. Briefly, the cells were harvested and homogenized in TE buffer (50 mM Tris-HCl, 1 mM MgCl2, and 1 mM EDTA) using a polytron for 2×10 second bursts in the presence of protease inhibitors, followed by centrifugation at 45,000×g for 20 minutes. The final membrane pellet was re-homogenized in storage buffer (50 mM Tris-HCl, 1 mM MgCl2, and 1 mM EDTA and 10% sucrose) and frozen at −78° C. until used. Saturation binding reactions were initiated by the addition of membrane preparation (protein concentration of 5 μg/well for human CB2) into wells of a deep well plate containing [^3H]CP-55,940 (120 Ci/mmol, a nonselective CB agonist commercially available from Tocris) in assay buffer (50 mM Tris, 2.5 mM EDTA, 5 mM MgCl2, and 0.5 mg/mL fatty acid free BSA, pH 7.4). After 90 min incubation at 30° C., binding reaction was terminated by the addition of 300 μL/well of cold assay buffer followed by rapid vacuum filtration through a UniFilter-96 GF/C filter plates (pre-soaked in 1 mg/mL BSA for 2 hours). The bound activity was counted in a TopCount using Microscint-20. Saturation experiments were conducted with twelve concentrations of [^3H]CP-55,940 ranging from 0.01 to 8 nM. Competition experiments were conducted with 0.5 nM [^3H]CP-55,940 and five concentrations (0.01 nM to 10 μM) of displacing ligands. The addition of 10 μM unlabeled CP-55,940 (Tocris, Ellisville, Mo.) was used to assess nonspecific binding.

[2] = target: T2, rat CB2 receptors (Rattus norvegicus, UniProt Q9QZN9); experiment: rat CB2 radioligand binding assay
T2 construct: expressed in transfected cells; membrane preparation
T2 sequence (Q9QZN9 1-360): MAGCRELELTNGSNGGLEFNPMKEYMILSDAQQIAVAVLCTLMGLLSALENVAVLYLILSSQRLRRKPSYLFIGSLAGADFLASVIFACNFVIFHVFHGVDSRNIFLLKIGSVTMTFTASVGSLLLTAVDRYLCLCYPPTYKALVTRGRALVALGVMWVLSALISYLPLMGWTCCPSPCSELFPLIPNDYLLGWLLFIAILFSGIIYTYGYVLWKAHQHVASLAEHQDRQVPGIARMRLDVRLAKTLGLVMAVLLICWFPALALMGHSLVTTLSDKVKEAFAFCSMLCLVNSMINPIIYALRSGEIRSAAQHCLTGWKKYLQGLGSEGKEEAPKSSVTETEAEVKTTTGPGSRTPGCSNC
Protocol: as §1, §2
as §3, with “expressing rat” for “expressing human”, “of 20” for “of 5”, “for rat” for “for human”, “After 45” for “After 90”, “concentrations of displacing ligands selected from the range of 0.01” for “concentrations (0.01”, “10 μM.” for “10 μM) of displacing ligands.”

[3] = competition with 0.5 nM [3H]CP-55,940, HEK293 membranes expressing human CB2, read-out: human CB2 binding (Ki)
[4] = competition with 0.5 nM [3H]CP-55,940, HEK293 membranes expressing rat CB2, read-out: rat CB2 binding (Ki)

T1 sequence (P34972 whole entry): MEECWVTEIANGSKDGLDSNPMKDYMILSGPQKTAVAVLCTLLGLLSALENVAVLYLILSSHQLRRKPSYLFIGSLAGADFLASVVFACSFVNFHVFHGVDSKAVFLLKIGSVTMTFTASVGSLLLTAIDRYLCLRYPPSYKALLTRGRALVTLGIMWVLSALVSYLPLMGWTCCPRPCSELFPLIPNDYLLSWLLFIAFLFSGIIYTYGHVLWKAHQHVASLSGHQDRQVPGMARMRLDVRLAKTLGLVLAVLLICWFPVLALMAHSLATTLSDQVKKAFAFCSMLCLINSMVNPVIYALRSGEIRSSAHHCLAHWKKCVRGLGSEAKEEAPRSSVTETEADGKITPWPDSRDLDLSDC

In the case of CCCCn1/c(=N/C(=O)c2cc(C(F)(F)F)ccc2CCC(C)(C)O)cc(C(C)(C)C)n1C [Example 1, N-[(3E)-2-butyl-5-tert-butyl-1-methyl-1,2-dihydro-3H-pyrazol-3-ylidene]-2-(3-hydroxy-3-methylbutyl)-5-(trifluoromethyl)benzamide], the Ki [1, 3] is reported as 133 nM and the Ki [2, 4] is reported as 102 nM.
Molecule CCCCCn1/c(=N/C(=O)c2cc(C(F)(F)F)ccc2CCC(C)(C)O)cc(C(C)(C)C)n1C [Example 2, N-[(3E)-5-tert-butyl-1-methyl-2-pentyl-1,2-dihydro-3H-pyrazol-3-ylidene]-2-(3-hydroxy-3-methylbutyl)-5-(trifluoromethyl)benzamide] has a Ki [1] of 32.2 nM and a Ki [2] of 25 nM.
In the case of Cn1c(C(C)(C)C)c/c(=N\C(=O)c2cc(C(F)(F)F)ccc2/C=C/C(C)(C)O)n1CC1CC1 [Example 3, N-[(3E)-5-tert-butyl-2-(cyclopropylmethyl)-1-methyl-1,2-dihydro-3H-pyrazol-3-ylidene]-2-[(1E)-3-hydroxy-3-methylbut-1-enyl]-5-(trifluoromethyl)benzamide], the Ki [1] is reported as 41.7 nM and the Ki [2] is reported as 37.2 nM.
Cn1c(C(C)(C)C)c/c(=N\C(=O)c2cc(C(F)(F)F)ccc2CCC(C)(C)O)n1CC1CC1 [Example 4, N-[(3E)-5-tert-butyl-2-(cyclopropylmethyl)-1-methyl-1,2-dihydro-3H-pyrazol-3-ylidene]-2-(3-hydroxy-3-methylbutyl)-5-(trifluoromethyl)benzamide] showed a Ki [1] of 151 nM and a Ki [2] of 121 nM.
With CCCn1/c(=N/C(=O)c2cc(C(F)(F)F)ccc2/C=C/C(C)(C)O)cc(C(C)(C)C)n1C [Example 5, N-[(3E)-5-tert-butyl-1-methyl-2-propyl-1,2-dihydro-3H-pyrazol-3-ylidene]-2-[(1E)-3-hydroxy-3-methylbut-1-enyl]-5-(trifluoromethyl)benzamide] the Ki [1] was 277 nM and the Ki [2] was 89.6 nM.
For Cn1c(C(C)(C)C)c/c(=N\C(=O)c2cc(C(F)(F)F)ccc2/C=C/C(C)(C)O)n1CC1CCC1 [Example 6, N-[(3E)-5-tert-butyl-2-(cyclobutylmethyl)-1-methyl-1,2-dihydro-3H-pyrazol-3-ylidene]-2-[(1E)-3-hydroxy-3-methylbut-1-enyl]-5-(trifluoromethyl)benzamide], the Ki [1] was 10.9 nM and the Ki [2] was 3.29 nM.
Cn1c(C(C)(C)C)c/c(=N\C(=O)c2cc(C(F)(F)F)ccc2CCC(C)(C)O)n1CC1CCC1 [Example 7, N-[(3E)-5-tert-butyl-2-(cyclobutylmethyl)-1-methyl-1,2-dihydro-3H-pyrazol-3-ylidene]-2-(3-hydroxy-3-methylbutyl)-5-(trifluoromethyl)benzamide] gave a Ki [1] of 20.8 nM and a Ki [2] of 17.2 nM.
Cn1c(C(C)(C)C)c/c(=N\C(=O)c2cc(C(F)(F)F)ccc2CN2CC(O)C2)n1CC1CC1 [Example 9, N-[(3E)-5-tert-butyl-2-(cyclopropylmethyl)-1-methyl-1,2-dihydro-3H-pyrazol-3-ylidene]-2-[(3-hydroxyazetidin-1-yl)methyl]-5-(trifluoromethyl)benzamide] gave a Ki [1] of 30.1 nM and a Ki [2] of 24.8 nM.
Cn1c(C(C)(C)C)c/c(=N\C(=O)c2cc(C(F)(F)F)ccc2CN2CC(C)(O)C2)n1CC1CC1 [Example 10, N-[(3E)-5-tert-butyl-2-(cyclopropylmethyl)-1-methyl-1,2-dihydro-3H-pyrazol-3-ylidene]-2-[(3-hydroxy-3-methylazetidin-1-yl)methyl]-5-(trifluoromethyl)benzamide] showed a Ki [1] of 186 nM and a Ki [2] of 108 nM.
With CCCCn1/c(=N/C(=O)c2cc(C(F)(F)F)ccc2CCC(=O)OCC)cc(C(C)(C)C)n1C [Example 11, ethyl 3-[2-({[(3E)-2-butyl-5-tert-butyl-1-methyl-1,2-dihydro-3H-pyrazol-3-ylidene]amino}carbonyl)-4-(trifluoromethyl)phenyl]propanoate] the Ki [1] was 53.3 nM and the Ki [2] was 32.5 nM.
Work on CCCCn1/c(=N/C(=O)c2cc(C(F)(F)F)ccc2CN2CC(C)(O)C2)cc(C(C)(C)C)n1C [Example 12, N-[(3E)-2-butyl-5-tert-butyl-1-methyl-1,2-dihydro-3H-pyrazol-3-ylidene]-2-[(3-hydroxy-3-methylazetidin-1-yl)methyl]-5-(trifluoromethyl)benzamide] yielded a Ki [1, 3] of 142 nM and a Ki [2, 4] of 177 nM.
For CCCCn1/c(=N/C(=O)c2cc(C(F)(F)F)ccc2CN2CC[C@@H](O)C2)cc(C(C)(C)C)n1C [Example 13, N-[(3E)-2-butyl-5-tert-butyl-1-methyl-1,2-dihydro-3H-pyrazol-3-ylidene]-2-{[(3R)-3-hydroxypyrrolidin-1-yl]methyl}-5-(trifluoromethyl)benzamide], the Ki [2, 4] was 453 nM.
COCCCn1/c(=N/C(=O)c2cc(C(F)(F)F)ccc2/C=C/C(C)(C)O)cc(C(C)(C)C)n1C [Example 14, N-[(3E)-5-tert-butyl-2-(3-methoxypropyl)-1-methyl-1,2-dihydro-3H-pyrazol-3-ylidene]-2-[(1E)-3-hydroxy-3-methylbut-1-enyl]-5-(trifluoromethyl)benzamide] gave a Ki [1, 3] of 111 nM and a Ki [2] of 30.6 nM.
Molecule COCCCn1/c(=N/C(=O)c2cc(C(F)(F)F)ccc2CCC(C)(C)O)cc(C(C)(C)C)n1C [Example 15, N-[(3E)-5-tert-butyl-2-(3-methoxypropyl)-1-methyl-1,2-dihydro-3H-pyrazol-3-ylidene]-2-(3-hydroxy-3-methylbutyl)-5-(trifluoromethyl)benzamide] has a Ki [2, 4] of 220 nM.
With CCCCn1nc(C(C)(C)C)s/c1=N\C(=O)c1cc(C(F)(F)F)ccc1CN1CC(O)C1 [Example 16, N-[(2Z)-3-butyl-5-tert-butyl-1,3,4-thiadiazol-2(3H)-ylidene]-2-[(3-hydroxyazetidin-1-yl)methyl]-5-(trifluoromethyl)benzamide] the Ki [1] was 1.63 nM and the Ki [2] was 0.8 nM.
Work on CCCCn1nc(C(C)(C)C)s/c1=N\C(=O)c1cc(C(F)(F)F)ccc1CN1CC(C)(O)C1 [Example 17, N-[(2Z)-3-butyl-5-tert-butyl-1,3,4-thiadiazol-2(3H)-ylidene]-2-[(3-hydroxy-3-methylazetidin-1-yl)methyl]-5-(trifluoromethyl)benzamide] yielded a Ki [1] of 5.9 nM and a Ki [2] of 1.45 nM.
For CCCCn1nc(C(C)(C)C)s/c1=N\C(=O)c1cc(C(F)(F)F)ccc1CN1CC[C@H](O)C1 [Example 18, N-[(2Z)-3-butyl-5-tert-butyl-1,3,4-thiadiazol-2(3H)-ylidene]-2-{[(3S)-3-hydroxypyrrolidin-1-yl]methyl}-5-(trifluoromethyl)benzamide], the Ki [1] was 14.9 nM and the Ki [2] was 1.59 nM.
CCCCn1nc(C(C)(C)C)s/c1=N\C(=O)c1cc(C(F)(F)F)ccc1CN1CC[C@@H](O)C1 [Example 19, N-[(2Z)-3-butyl-5-tert-butyl-1,3,4-thiadiazol-2(3H)-ylidene]-2-{[(3R)-3-hydroxypyrrolidin-1-yl]methyl}-5-(trifluoromethyl)benzamide] was tested, and the Ki [1] was 15.3 nM and the Ki [2] was 3.85 nM.
In the case of CCCCn1nc(C(C)(C)C)s/c1=N\C(=O)c1cc(C(F)(F)F)ccc1CO [Example 20, N-[(2Z)-3-butyl-5-tert-butyl-1,3,4-thiadiazol-2(3H)-ylidene]-2-(hydroxymethyl)-5-(trifluoromethyl)benzamide], the Ki [1] is reported as 1.89 nM and the Ki [2] is reported as 0.57 nM.
